Consider two molecules from patent publication US12486279B2, “Indole alkaloid with fungicidal effect” (priority 2020, dated 2025).

Data set [1] has as its system Colletotrichum gloeosporioides. The data set is described as follows: Minimum inhibitory concentration (MIC), triphenyl tetrazolium chloride reduction, Colletotrichum gloeosporioides. It counts as cell-based. The following applies: for Growth of the fungus on plates: 7.81 to 250 mg/mL, analyst 1; for Growth of the fungus on plates / Absorbance compared with the control: both days; for Absorbance compared with the control: all 8 concentrations; for MIC: Colletotrichum gloeosporioides. On the procedure: First, its effect on the growth of samples of Colletotrichum gloeosporioides was assessed. The weighting of the activity was established in a spectrophotometric model through the reduction of Triphenyl Tetrazolium Chloride as a measure of […] metabolism (oxide reduction system). The C. gloeosporioides samples were incubated for 24 h at 37° C. in the presence of increasing amounts of Andranone and the control agents Chlorothalonil and Mancozeb. After the indicated time, the amount of formazan produced was assessed by colorimetry, which is indicative of the amount of viable fungal cells after the treatments.

Data set [2] has as its system Fusarium oxysporum. The data set is described as follows: Minimum inhibitory concentration (MIC), Fusarium oxysporum. The following applies: for Trend of absorbance with concentration: FIG. 6, 2 days; for Growth of the fungus on plates: 15.62-2000 mg/mL. Type of data set: cell-based.
The subject of data set [3] is agricultural workers. The following applies: exposed agricultural workers (Dennis et al. 2010); cited from earlier work.
Data set [4] relates to women exposed to Mancozeb. The following applies: exposed women (Van Wendel de Joode et al. 2014); cited from earlier work.
For data set [5] the following is noted: acidic or neutral conditions; cited from earlier work.
In data set [6] the test system is various fish species. As to conditions: 48 to 96 h after exposure; cited from earlier work.
In data set [7] the test system is Daphnia magna. As to conditions: cited from earlier work.
Data set [8] deals with small fish. The following applies: cited from earlier work.
[9] abbreviates: 6 technical replicates, 2 days, with standard deviation, 24 h at 37° C.

Converted amounts (≈) assume the structure as drawn. Read-outs that look alike come from different tables or passages of the source.

For the molecule Mancozeb, in data set [1] (setting [9]), the “Minimum inhibitory concentration (MIC), Average Analyst 1” value turned out to be 7.8 ± 0.0 mg/mL and the “Minimum inhibitory concentration (MIC), Average Analyst 2” value stood at 15.6 ± 11.0 mg/mL. In data set [1], the “Growth of the fungus on plates” value is “no growth of the fungus was observed in any of the concentrations evaluated” and the “Absorbance compared with the control” value was “the absorbance is lower compared to the absorbance of the control”. Moreover, the “Minimum inhibitory concentration (MIC), Average” value in data set [1] (average of 2 analysts, with standard deviation) turned out to be 11.7 ± 5.5 mg/mL. The “Trend of absorbance with concentration” value in data set [2] was “the absorbance increases as the concentration of this compound increase”. In addition, the “Growth of the fungus on plates” value in data set [2] (both days, no change in salt color) was “a slight growth of the fungus was observed, mainly at concentrations of 250 to 2000 mg/mL”. Besides, in data set [3], the “Risk of developing cutaneous melanoma” value is “significantly increases the risk of developing cutaneous melanoma”. Besides, the “Ethylene thiourea (ETU) in urine” value in data set [4] is “elevated levels of ethylene thiourea in urine”.

As to `N#Cc1c(Cl)c(Cl)c(Cl)c(C#N)c1Cl` [Chlorothalonil, tetrachloro-isophthalonitrile], the “Growth of the fungus on plates” value was “the fungus was not able to grow in any of the evaluated concentrations” in data set [1]; “the fungus was not able to grow in the highest concentrations of this fungicide” in data set [2] (day 1); “a slight growth of the fungus was observed, mainly at concentrations of 125 to 2000 mg/mL” in data set [2] (day 2). Also, the MIC in data set [1] (6 technical replicates, 2 days, with standard deviation, 24 h at 37° C., read-out: Minimum inhibitory concentration (MIC), Average Analyst 1) is 7.8 mg/mL (≈ 29.3 mM); in data set [1] (6 technical replicates, 2 days, with standard deviation, 24 h at 37° C., read-out: Minimum inhibitory concentration (MIC), Average Analyst 2), 23.4 ± 22.1 mg/mL (≈ 88 mM); in data set [1] (average of 2 analysts, with standard deviation, read-out: Minimum inhibitory concentration (MIC), Average), 15.6 ± 11 mg/mL (≈ 58.7 mM); in data set [2] (Fusarium oxysporum, average of a biological replica on 2 different days), 1 mg/mL (≈ 3.76 mM). In data set [1], the “Absorbance compared with the control” value was “lower absorbances than the control in the 8 concentrations”. Besides, the “Trend of absorbance with concentration” value in data set [2] was “trend similar to that of Mancozeb”. For the same molecule, the “Absorbance (570 nm)” value in data set [2] (at the concentration at which the MIC was established, average of 2 days) is recorded as 0.45 ± 0.04. For the same molecule, the “Inhibition Type” value in data set [2] (class from MIC) is recorded as “Moderate (a moderate inhibition occurs in compounds with a MIC between 0.6 to 1 mg/mL)”. In data set [5], the Stability to hydrolysis result is given as “stable to hydrolysis”. In data set [6], the “Median lethal toxicity values (LC50)” value is listed as “less than 20 μg/L”. For the same molecule, in data set [7], the “Concentration causing a delay in reproduction” value is 32 ng/mL. The “Concentration decreasing eggs per spawning, hatchability of eggs and survival of the fry” value in data set [8] was 6.5 ng/mL.
